Data: ChEMBL document CHEMBL1201862, “PubChem BioAssay data set” (2004)
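The compound was tested at five concentrations on cells cultured in 96-well plates, with a 48-hour exposure period. Abbreviation: GI50, concentration required for 50% inhibition of growth.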 Active and inactive are the calls of the source. No stated cut-off is given here; in the data, active = GI50 up to about 1.1 µM and inactive = higher.

Key:
Experiment in all cases: DTP human tumour cell line panel, 48 h
PC-3 = test system: PC-3
U-251 = test system: U-251
SNB-75 = test system: SNB-75
RPMI-8226 = test system: RPMI-8226
NCI/ADR-RES = test system: NCI/ADR-RES
SF-268 = test system: SF-268
MOLT-4 = test system: MOLT-4
IGROV-1 = test system: IGROV-1
NCI-H23 = test system: NCI-H23
ACHN = test system: ACHN
HCT-116 = test system: HCT-116
MDA-MB-231 = test system: MDA-MB-231
HT-29 = test system: HT-29
SK-MEL-2 = test system: SK-MEL-2
CAKI-1 = test system: CAKI-1
A549 = test system: A549
HOP-92 = test system: HOP-92
RXF 393 = test system: RXF 393
OVCAR-8 = test system: OVCAR-8
MCF7 = test system: MCF7
SK-OV-3 = test system: SK-OV-3
DU-145 = test system: DU-145
NCI-H226 = test system: NCI-H226
M14 = test system: M14
HCC 2998 = test system: HCC 2998
SW-620 = test system: SW-620
K562 = test system: K562
SK-MEL-28 = test system: SK-MEL-28
SK-MEL-5 = test system: SK-MEL-5
SF-295 = test system: SF-295
Hs-578T = test system: Hs-578T
SNB-19 = test system: SNB-19
UACC-257 = test system: UACC-257
CCRF-CEM = test system: CCRF-CEM
MDA-N = test system: MDA-N
KM12 = test system: KM12
A498 = test system: A498
MDA-MB-435 = test system: MDA-MB-435
OVCAR-4 = test system: OVCAR-4
BT-549 = test system: BT-549
HL-60 = test system: HL-60
TK-10 = test system: TK-10
OVCAR-5 = test system: OVCAR-5
COLO 205 = test system: COLO 205
786-0 = test system: 786-0
EKVX = test system: EKVX
SN12C = test system: SN12C
LOX IMVI = test system: LOX IMVI
T47D = test system: T47D
HOP-62 = test system: HOP-62
UO-31 = test system: UO-31
HCT-15 = test system: HCT-15
NCI-H522 = test system: NCI-H522
NCI-H460 = test system: NCI-H460
OVCAR-3 = test system: OVCAR-3
SR = test system: SR
SF-539 = test system: SF-539
Malme-3M = test system: Malme-3M
UACC-62 = test system: UACC-62
DLD-1 = test system: DLD-1
XF498 = test system: XF498
KM-20L2 = test system: KM-20L2
LXFL 529 = test system: LXFL 529
M19-MEL = test system: M19-MEL
DMS-114 = test system: DMS-114
DMS-273 = test system: DMS-273

Compound: Cc1c(C)c(S(=O)(=O)N(CCCCCCN)OCCCN)c(C)c2c1OC(C)(C)CC2
- GI50 (PC-3): 3.7 µM (inactive)
- GI50 (U-251): 4.46 µM (inactive)
- GI50 (SNB-75): 2.99 µM (inactive)
- GI50 (RPMI-8226): 4.39 µM (inactive)
- GI50 (NCI/ADR-RES): 15.5 µM (inactive)
- GI50 (SF-268): 6.93 µM (inactive)
- GI50 (MOLT-4): 2.18 µM (inactive)
- GI50 (IGROV-1): 2 µM (inactive)
- GI50 (NCI-H23): 8.83 µM (inactive)
- GI50 (ACHN): 8.99 µM (inactive)
- GI50 (HCT-116): 1.97 µM (inactive)
- GI50 (MDA-MB-231): 3.56 µM (inactive)
- GI50 (HT-29): 5.6 µM (inactive)
- GI50 (SK-MEL-2): 2.42 µM (inactive)
- GI50 (CAKI-1): 15.8 µM (inactive)
- GI50 (A549): 4.94 µM (inactive)
- GI50 (HOP-92): 4.16 µM (inactive)
- GI50 (RXF 393): 4.13 µM (inactive)
- GI50 (OVCAR-8): 8.17 µM (inactive)
- GI50 (MCF7): 9.59 µM (inactive)
- GI50 (SK-OV-3): 10.1 µM (inactive)
- GI50 (DU-145): 26.4 µM (inactive)
- GI50 (NCI-H226): 5.37 µM (inactive)
- GI50 (M14): 17.8 µM (inactive)
- GI50 (HCC 2998): 2.04 µM (inactive)
- GI50 (SW-620): 7.45 µM (inactive)
- GI50 (K562): 4.53 µM (inactive)
- GI50 (SK-MEL-28): 17.6 µM (inactive)
- GI50 (SK-MEL-5): 10.6 µM (inactive)
- GI50 (SF-295): 7.5 µM (inactive)
- GI50 (Hs-578T): 3.72 µM (inactive)
- GI50 (SNB-19): 3.96 µM (inactive)
- GI50 (UACC-257): 11 µM (inactive)
- GI50 (CCRF-CEM): 2.31 µM (inactive)
- GI50 (MDA-N): 2.81 µM (inactive)
- GI50 (KM12): 1.91 µM (inactive)
- GI50 (A498): 16.1 µM (inactive)
- GI50 (MDA-MB-435): 5.37 µM (inactive)
- GI50 (OVCAR-4): 2.49 µM (inactive)
- GI50 (BT-549): 13.3 µM (inactive)
- GI50 (HL-60): 1.22 µM (inactive)
- GI50 (TK-10): 14.3 µM (inactive)
- GI50 (OVCAR-5): > 28.7 µM (inactive)
- GI50 (COLO 205): 4.29 µM (inactive)
- GI50 (786-0): 3.22 µM (inactive)
- GI50 (EKVX): 6.65 µM (inactive)
- GI50 (SN12C): 13 µM (inactive)
- GI50 (LOX IMVI): 2.4 µM (inactive)
- GI50 (T47D): 12.1 µM (inactive)
- GI50 (HOP-62): 4.36 µM (inactive)
- GI50 (UO-31): 11.8 µM (inactive)
- GI50 (HCT-15): 15.1 µM
- GI50 (NCI-H522): 4.7 µM (inactive)
- GI50 (NCI-H460): 2.69 µM (inactive)
- GI50 (OVCAR-3): 2.44 µM (inactive)
- GI50 (SR): 5.92 µM (inactive)
- GI50 (SF-539): > 24.1 µM (inactive)
- GI50 (Malme-3M): 2.15 µM (inactive)
- GI50 (UACC-62): 11.4 µM (inactive)

Compound: CC1(C)OC(=S)N(c2ccccc2)C12C=Cc1cc3ccccc3nc1S2 (stereo unspecified)
- GI50 (DLD-1): 40.6 µM (inactive)
- GI50 (U-251): > 100 µM (inactive)
- GI50 (SNB-75): 97.1 µM (inactive)
- GI50 (RPMI-8226): 33.7 µM (inactive)
- GI50 (SF-268): > 100 µM (inactive)
- GI50 (MOLT-4): 26.9 µM (inactive)
- GI50 (IGROV-1): > 100 µM (inactive)
- GI50 (NCI-H23): 29.6 µM (inactive)
- GI50 (ACHN): > 100 µM (inactive)
- GI50 (HCT-116): > 100 µM (inactive)
- GI50 (HT-29): 40.4 µM (inactive)
- GI50 (SK-MEL-2): > 100 µM (inactive)
- GI50 (A549): > 100 µM (inactive)
- GI50 (HOP-92): 40.3 µM (inactive)
- GI50 (RXF 393): 55.6 µM (inactive)
- GI50 (OVCAR-8): > 100 µM (inactive)
- GI50 (SK-OV-3): > 100 µM (inactive)
- GI50 (XF498): > 100 µM (inactive)
- GI50 (KM-20L2): > 100 µM (inactive)
- GI50 (NCI-H226): > 100 µM (inactive)
- GI50 (M14): > 100 µM (inactive)
- GI50 (HCC 2998): > 100 µM (inactive)
- GI50 (SW-620): > 100 µM (inactive)
- GI50 (K562): 33.4 µM (inactive)
- GI50 (SK-MEL-28): > 100 µM (inactive)
- GI50 (LXFL 529): 44 µM (inactive)
- GI50 (SK-MEL-5): 56.9 µM (inactive)
- GI50 (M19-MEL): 93.8 µM (inactive)
- GI50 (SNB-19): > 100 µM (inactive)
- GI50 (UACC-257): > 100 µM (inactive)
- GI50 (CCRF-CEM): 29.9 µM (inactive)
- GI50 (KM12): > 100 µM (inactive)
- GI50 (HL-60): 40.9 µM (inactive)
- GI50 (TK-10): > 100 µM (inactive)
- GI50 (OVCAR-5): > 100 µM (inactive)
- GI50 (DMS-114): > 100 µM (inactive)
- GI50 (COLO 205): 84.3 µM (inactive)
- GI50 (786-0): > 100 µM (inactive)
- GI50 (EKVX): > 100 µM (inactive)
- GI50 (SN12C): > 100 µM (inactive)
- GI50 (LOX IMVI): 59 µM (inactive)
- GI50 (HOP-62): > 100 µM (inactive)
- GI50 (UO-31): 73.5 µM (inactive)
- GI50 (HCT-15): > 100 µM
- GI50 (NCI-H522): 32.6 µM (inactive)
- GI50 (DMS-273): 97.3 µM (inactive)
- GI50 (NCI-H460): 84.9 µM (inactive)
- GI50 (OVCAR-3): > 100 µM (inactive)
- GI50 (SR): 22.4 µM (inactive)
- GI50 (SF-539): > 100 µM (inactive)
- GI50 (Malme-3M): > 100 µM (inactive)
- GI50 (UACC-62): > 100 µM (inactive)
